# According to BindingDB's records for patent US12404261 (Novartis, 2025):
# Molecular target: Cyclic GMP-AMP synthase (Homo sapiens, UniProt Q8N884)
# Test: Biochemical Assay
# Protocol: The enzyme solution was transferred into the reagent buffer to give a final concentration of 30 nM. […] The reaction plates were then centrifuged at 1000 rpm for 1 minute and incubated at room temperature for 1 h.
# Chain of Cyclic GMP-AMP synthase (Q8N884 whole entry): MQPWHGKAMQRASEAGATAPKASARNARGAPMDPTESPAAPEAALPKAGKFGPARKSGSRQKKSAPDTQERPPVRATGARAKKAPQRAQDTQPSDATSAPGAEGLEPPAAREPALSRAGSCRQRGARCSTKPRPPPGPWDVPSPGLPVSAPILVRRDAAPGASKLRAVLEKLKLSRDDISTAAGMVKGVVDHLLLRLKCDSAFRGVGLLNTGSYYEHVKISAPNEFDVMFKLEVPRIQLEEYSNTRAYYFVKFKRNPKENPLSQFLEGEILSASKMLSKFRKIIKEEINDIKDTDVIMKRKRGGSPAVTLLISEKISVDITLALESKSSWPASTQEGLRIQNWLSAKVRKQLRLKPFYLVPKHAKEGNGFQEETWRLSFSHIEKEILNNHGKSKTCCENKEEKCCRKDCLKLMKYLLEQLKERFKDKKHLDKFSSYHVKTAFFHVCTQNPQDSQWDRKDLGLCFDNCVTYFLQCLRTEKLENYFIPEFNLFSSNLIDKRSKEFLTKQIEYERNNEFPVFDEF
row,IC50 [nM],SMILES
1,172,"COc1cc2c(-n3ccnc3)c(-c3nnc(C(=O)N(C)C)[nH]3)n(C)c2c(C#N)c1C#N [US12404261, Example 120]"
2,104,"COc1cc2c(-n3ccnc3)c(-c3nnc(C(CN(C)C)OC)[nH]3)n(C)c2c(F)c1Cl (configuration not stated) [US12404261, Example 97]"
3,67,"Cn1c(-c2nnc(C(F)(F)F)[nH]2)c(-n2ccnc2)c2cc(O)c(Cl)cc21 [US12404261, Example 115]"
4,411,"COCC(C1=NNC(c2c(-n3ccnc3)c3cc(OC)c(Cl)c(F)c3n2C)N1)N1CCOCC1 (configuration not stated) [US12404261, Example 126]"
5,861,"FC(F)(F)c1nnc(-c2[nH]c3cc(Cl)c(OC4CC4)cc3c2-n2ccnc2)[nH]1 [US12404261, Example 113]"
6,70,"COc1cc2c(-c3cn[nH]c3)c(-c3nnc(C(CN(C)C)OC)[nH]3)n(C)c2c(F)c1Cl (configuration not stated) [US12404261, Example 75]"
7,137,"Cn1c(-c2nnc(C(F)(F)F)[nH]2)c(-c2cn[nH]c2)c2ccc(Cl)c(C#N)c21 [US12404261, Example 27]"
